Assay [1] concerns the target IDH1 wt/IDH1 R132H heterodimer (Homo sapiens (Human), UniProt O75874, R132H). Description: In vitro assay for IDH1m R132H inhibitors, IDH1 wt/IDH1 R132H heterodimer, NADPH depletion (diaphorase/resazurin). The class given is biochemical. The method, boiled down:
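Purified IDH1wt-his/IDH1R132H-flag heterodimer (sf9 co-expression) pre-incubated 1 hr at room temperature with compound and NADPH before α-KG addition. Remaining NADPH read by diaphorase/resazurin conversion to fluorescent resorufin, 5 min at 25° C. Compounds diluted 1:50 from DMSO; IC50 determined.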
(In general: Resazurin is reduced to fluorescent resorufin, in cell work by metabolically active cells.)

Assay [2] concerns U87MG pLVX-IDH2 R140Q-neo cells. Briefly: U87MG pLVX-IDH2 R140Q-neo cell based assay, 2-HG by LC-MS. The following applies: Homo sapiens, U-87 MG.
The target in assay [3] is IDH2 R140Q (Homo sapiens (Human), UniProt P48735, R140Q). Description: In vitro assay for IDH2m R140Q inhibitors, cofactor depletion assay. In kind it is biochemical. The following applies: IDH2 R140Q enzyme. The method in brief: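 Remaining cofactor measured fluorimetrically: diaphorase/resazurin Stop Mix […], halting the reaction. Before that, mutant enzyme and compound sat 1 h at RT, then substrate mix (4 μM NADPH, 1.6 mM α-KG) was added for 16 h at RT.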

For assay [4], the target named is IDH1-R132H homodimer enzyme (Homo sapiens (Human), UniProt O75874, R132H). Description: In vitro assay IDH1-R132H homodimer, NADPH depletion assay with NADPH/NADP preincubation. The class given is biochemical. Conditions: 5 μM NADPH and 37.5 μM NADP. On the procedure:
The following describes the experimental procedures that can be used to obtain data on columns 3 and 5 of Table 5.
A test compound is prepared as 10 mM stock in DMSO and diluted to 50× final concentration in DMSO, for a 50 μl reaction mixture. IDH enzyme activity converting alpha-ketoglutarate to 2-hydroxyglutaric acid is measured using a NADPH depletion assay. In the assay the remaining cofactor is measured at the end of the reaction with the addition of a catalytic excess of diaphorase and resazurin, to generate a fluorescent signal in proportion to the amount of NADPH remaining. […] The reaction is started with the addition of 10 μl of Substrate Mix ([…], 5 mM alpha-ketoglutarate, in Assay Buffer) and the mixture is incubated for 60 minutes at room temperature.

For assay [5], the system named is Neurosphere cells (TS603). Briefly: Cellular assay for IDH1m R132H inhibitors, 2-HG by LC-MS in neurosphere cells (TS603). In kind it is cell-based. The following applies: 2-HG in media at 48 hours. The method in brief:
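TS603 neurosphere cells in NeuroCult medium were dosed with compound (0.25% DMSO final) at 37 C, 5% CO2. After 48 hours, medium 2-HG was measured by LC-MS. At 72 hours, viability was read by CellTiter-Glo luminescence.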

The test system of assay [6] is HT1080 cells. Briefly: Cellular assay for IDH1m R132C inhibitors, 2-HG by LC-MS in HT1080 cells. In kind it is cell-based. The following applies: Homo sapiens, HT-1080. On the procedure:
The following describes the experimental procedures that can be used to obtain data on column 5 of Table 4.
Cells (HT1080 or U87MG) are grown in T125 flasks in DMEM containing 10% FBS, 1× penicillin/streptomycin and 500 ug/mL G418 (present in U87MG cells only). They are harvested by trypsin and seeded into 96 well white bottom plates at a density of 5000 cell/well in 100 ul/well in DMEM with 10% FBS. No cells are placed in columns 1 and 12. Cells are incubated overnight at 37° C. in 5% CO2. The next day test compounds are made up at 2× the final concentration and 100 ul are added to each cell well. The final concentration of DMSO is 0.2% and the DMSO control wells are plated in row G. The plates are then placed in the incubator for 48 hours. At 48 hours, 100 ul of media is removed from each well and analyzed by LC-MS for 2-HG concentrations. The cell plate is placed back in the incubator for another 24 hours. At 72 hours post compound addition, 10 mL/plate of Promega Cell Titer Glo reagent is thawed and mixed. The cell plate is removed from the incubator and allowed to equilibrate to room temperature. Then 100 ul of Promega Cell Titer Glo reagent is added to each well of media. The cell plate is then placed on an orbital shaker for 10 minutes and then allowed to sit at room temperature for 20 minutes. The plate is then read for luminescence with an integration time of 500 ms.
HT1080 cells are maintained in RPMI containing 10% FBS, 1× penicillin/streptomycin. […] The next day compounds are prepared in 100% DMSO and then diluted in media for a final concentration of 0.2% DMSO. Media is removed from the cell plates and 200 μL of the compound dilutions are added to each well. […] The cell plates are then allowed to incubate another 24 hours.

The mark [7] stands for this setting: IDH1 wt/R132H heterodimer, NADPH/NADP, not saturated, read-out: IDH1 wt/R132H NADPH/NADP IC50 not saturated.
The mark [8] stands for this setting: IDH1 wt/IDH1 R132H heterodimer, 300 μM NADP (saturated), read-out: IDH1 wt/R132H NADPH/NADP IC50 saturated.

We go through 29 compounds from patent US10028961B2, “Therapeutically active compounds and their methods of use” (AGIOS PHARMACEUTICALS, INC., priority 2013, dated 2018).

Structures are written as SMILES. Like-named read-outs stand apart in the source and are kept apart here.

Chain of IDH1-R132H homodimer enzyme (O75874 whole entry R132H): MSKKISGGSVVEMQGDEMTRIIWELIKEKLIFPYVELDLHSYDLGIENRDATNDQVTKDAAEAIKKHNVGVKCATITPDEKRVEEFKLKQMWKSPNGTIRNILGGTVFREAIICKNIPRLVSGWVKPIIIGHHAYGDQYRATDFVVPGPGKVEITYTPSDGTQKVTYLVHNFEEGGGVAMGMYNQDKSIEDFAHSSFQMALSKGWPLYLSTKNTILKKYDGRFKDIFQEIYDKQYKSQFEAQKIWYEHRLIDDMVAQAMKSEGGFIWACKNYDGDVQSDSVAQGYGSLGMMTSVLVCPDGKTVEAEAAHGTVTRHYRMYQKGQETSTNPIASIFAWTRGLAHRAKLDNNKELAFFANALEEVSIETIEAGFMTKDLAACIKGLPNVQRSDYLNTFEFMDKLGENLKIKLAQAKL
Chain of IDH1 wt/IDH1 R132H heterodimer (O75874 whole entry R132H): as above
Chain of IDH1 wt/IDH1 R132H heterodimer (O75874 whole entry, stated change not applied): as the sequence (O75874 whole entry R132H) above, with H132R counted along it
Chain of IDH2 R140Q (P48735 40-452 R140Q): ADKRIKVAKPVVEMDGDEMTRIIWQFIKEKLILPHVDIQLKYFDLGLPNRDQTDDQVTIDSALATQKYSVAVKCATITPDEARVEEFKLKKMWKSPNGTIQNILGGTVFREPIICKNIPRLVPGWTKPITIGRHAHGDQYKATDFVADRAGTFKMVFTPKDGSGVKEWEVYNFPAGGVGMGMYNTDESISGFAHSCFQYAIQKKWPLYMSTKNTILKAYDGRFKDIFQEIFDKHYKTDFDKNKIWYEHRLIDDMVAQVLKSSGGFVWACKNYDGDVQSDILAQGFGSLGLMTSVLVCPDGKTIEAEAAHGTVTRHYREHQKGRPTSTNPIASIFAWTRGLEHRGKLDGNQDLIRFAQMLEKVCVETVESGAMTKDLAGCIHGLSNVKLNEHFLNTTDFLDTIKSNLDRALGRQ

In the case of `Fc1cc(F)cc(Nc2nc(NC3CC(F)(F)C3)nc(-c3cncc(Cl)n3)n2)c1` [Compound 120], the IC50 in assay [1] (setting [7]), in assay [2], in assay [3], in assay [4] and in assay [5] was under 0.05 µM in each case.
For `CC(Nc1nc(NC(C)C(F)(F)F)nc(-c2cccc(Cl)n2)n1)C(F)(F)F` (stereo not drawn) [Compound 130], the IC50 in assay [2] and in assay [6] was under 0.05 µM throughout.
With `FC1(F)CCC(Nc2nc(NC3CCC(F)(F)C3)nc(-c3cncc(C(F)(F)F)n3)n2)C1` (stereo not drawn) [Compound 138], the IC50 in assay [1] (setting [7]), in assay [2], in assay [3], in assay [4] and in assay [5] was under 0.05 µM throughout.
For the compound `FC1(F)CC[C@@H](Nc2nc(Nc3ccnc(C(F)(F)F)c3)nc(-c3cccc(C(F)(F)F)n3)n2)C1` [Compound 172], the IC50 in assay [1] (setting [7]), in assay [2], in assay [3], in assay [4] and in assay [5] was under 0.05 µM throughout.
Take `FC1(F)CCC(Nc2nc(Nc3ccnc(C(F)(F)F)c3)nc(-n3ccc(C(F)(F)F)n3)n2)C1` (stereo not drawn) [Compound 173]: the IC50 in assay [1] (setting [7]), in assay [2], in assay [3], in assay [4] and in assay [5] was under 0.05 µM throughout.
In the case of `CC(Nc1nc(Nc2ccnc(C(F)(F)F)c2)nc(-n2ccc(C(F)(F)F)n2)n1)C(F)(F)F` (stereo not drawn) [Compound 177], the IC50 in assay [1] (setting [7]) was under 0.05 µM; in assay [2] it was under 0.05 µM; in assay [3] it was under 0.05 µM; in assay [4] it was 0.05 to 0.1 µM; in assay [5], under 0.05 µM.
As for `N#CC1(c2cc(Nc3nc(NC4CCC(F)(F)C4)nc(-n4ccc(C(F)(F)F)n4)n3)ccn2)CC1` (stereo not drawn) [Compound 185], the IC50 in assay [1] (setting [7]), in assay [2], in assay [3], in assay [4] and in assay [5] was under 0.05 µM throughout.
For `Cn1cc(-c2nc(NC3CCC(F)(F)CC3)nc(NC3CCC(F)(F)CC3)n2)c(C(F)(F)F)n1` [Compound 275], the figures for the IC50 in assay [1] (setting [7]) and in assay [4] were 0.1 to 1 µM and over 1 µM, respectively.
On to `CC(F)(F)c1nc(-c2nc(NC3CCC(F)(F)CC3)nc(NC3CCC(F)(F)CC3)n2)cs1` [Compound 283], for which the IC50 in assay [1] (setting [7]) is 0.1 to 1 µM; in assay [2] it was 0.1 to 1 µM; in assay [3], 0.1 to 1 µM; in assay [4], over 1 µM.
For `C[C@@H](Nc1nc(N[C@H](C)C2CC2)nc(-c2cc(F)ccc2F)n1)C1CC1` [Compound 292], the IC50 was 0.1 to 1 µM in assay [1] (setting [7]) and over 1 µM in assay [6].
On to `FC(F)c1ccnc(-c2nc(NC3CCC(F)(F)CC3)nc(NC3CCC(F)(F)CC3)n2)n1` [Compound 308], for which the IC50 in assay [1] (setting [7]) is over 1 µM; in assay [2], 0.1 to 1 µM; in assay [3], 0.1 to 1 µM; in assay [4] it was over 1 µM; in assay [5] it was 0.1 to 1 µM.
As to `Oc1ccc(F)c(-c2nc(NC3CCC(F)(F)CC3)nc(NC3CCC(F)(F)CC3)n2)n1` [Compound 309], the IC50 in assay [1] (setting [7]) and in assay [4] was over 1 µM each time.
In the case of `COCCc1ccnc(-c2nc(NC3CCC(F)(F)CC3)nc(NC3CCC(F)(F)CC3)n2)n1` [Compound 315], the IC50 in assay [1] (setting [7]) and in assay [4] was over 1 µM each time.
In the case of `Cc1nc(-c2nc(NC3CC(F)(F)C3)nc(NC3CC(F)(F)C3)n2)c[nH]1` [Compound 317], the IC50 in assay [1] (setting [7]) and in assay [4] was over 1 µM in each case.
`Cc1nc(-c2nc(NC3CCC(F)(F)C3)nc(NC3CCC(F)(F)C3)n2)c[nH]1` (stereo not drawn) [Compound 319]: the IC50 in assay [1] (setting [7]) and in assay [4] was over 1 µM each time.
Take `Cc1nsc(-c2nc(NC3CCC(F)(F)CC3)nc(NC3CCC(F)(F)CC3)n2)n1` [Compound 328]: the IC50 in assay [1] (setting [7]) and in assay [4] was over 1 µM each time.
Take `Cc1nc(-c2nc(NC3CCC(F)(F)CC3)nc(NC3CCC(F)(F)CC3)n2)c[nH]1` [Compound 332]: the IC50 in assay [1] (setting [7]) and in assay [4] was over 1 µM each time.
In the case of `FC1(F)CCC(Nc2nc(NC3CCC(F)(F)CC3)nc(-c3nc(-c4ccccc4)ns3)n2)CC1` [Compound 333], the IC50 in assay [1] (setting [7]) and in assay [4] was over 1 µM each time.
For `Fc1cc(F)cc(Nc2nc(N[C@H]3CCC(F)(F)C3)nc(-c3cncc(C(F)(F)F)n3)n2)c1` [Compound 368], the IC50 in assay [1] (setting [8]), in assay [2], in assay [3], in assay [4] and in assay [5] was under 0.05 µM in each case.
On to `CC(F)(F)c1cncc(-c2nc(NC3CCC(F)(F)CC3)nc(NC3CCC(F)(F)CC3)n2)n1` [Compound 374], for which the IC50 in assay [1] (setting [8]) was 0.05 to 0.1 µM; in assay [2] it was under 0.05 µM; in assay [3], under 0.05 µM; in assay [5], under 0.05 µM.
For the compound `N#CC1(c2cc(Nc3nc(N[C@@H]4CCC(F)(F)C4)nc(-c4nccc(C(F)(F)F)n4)n3)ccn2)CC1` [Compound 375], the IC50 in assay [1] (setting [8]) is 0.1 to 1 µM; in assay [2], under 0.05 µM; in assay [3], under 0.05 µM; in assay [5], under 0.05 µM.
On to `FC(F)(F)c1cc(Nc2nc(NCC3CC3)nc(-c3nc(C(F)(F)F)cs3)n2)ccn1` [Compound 379], for which the IC50 in assay [1] (setting [8]) is 0.05 to 0.1 µM; in assay [2] it was under 0.05 µM; in assay [3] it was under 0.05 µM; in assay [5] it was under 0.05 µM.
With `FC1(F)CC2(CC(Nc3nc(Nc4ccnc(C(F)(F)F)c4)nc(-c4cncc(C(F)(F)F)n4)n3)C2)C1` [Compound 380], the IC50 is 0.1 to 1 µM in assay [1] (setting [8]), under 0.05 µM in assay [2], under 0.05 µM in assay [3] and under 0.05 µM in assay [5].
On to `C[C@@H](Nc1nc(Nc2ccnc(-c3ccc(C#N)cc3)c2)nc(-c2cccc(C(F)(F)F)n2)n1)C(F)(F)F` [Compound 383], for which the IC50 in assay [1] (setting [8]) is 0.1 to 1 µM; in assay [2], under 0.05 µM; in assay [3], under 0.05 µM; in assay [5] it was under 0.05 µM.
Regarding `FC(F)(F)c1cc(Nc2nc(NCC3CC3)nc(-c3cncc(C(F)(F)F)n3)n2)ccn1` [Compound 387], the IC50 in assay [1] (setting [8]) is 0.1 to 1 µM; in assay [2], under 0.05 µM; in assay [3], under 0.05 µM; in assay [5], under 0.05 µM.
`FC1(F)CCC(Nc2nc(NC3CCC(F)(F)C3)nc(-c3cccc(C(F)(F)F)n3)n2)CC1` (stereo not drawn) [Compound 395]: the IC50 in assay [1] (setting [8]), in assay [2], in assay [3] and in assay [5] was under 0.05 µM throughout.
As to `FC1(F)CC[C@@H](Nc2nc(N[C@H]3CCC(F)(F)C3)nc(-c3cncc(C(F)(F)F)n3)n2)C1` [Compound 399], the IC50 in assay [1] (setting [8]), in assay [2], in assay [3] and in assay [5] was under 0.05 µM throughout.
Regarding `FC1(F)CC[C@H](Nc2nc(N[C@H]3CCC(F)(F)C3)nc(-c3cncc(C(F)(F)F)n3)n2)C1` [Compound 406], the IC50 in assay [1] (setting [8]), in assay [2], in assay [3] and in assay [5] was under 0.05 µM each time.
Regarding `FC1(F)CCC(Nc2cc(NC3CCC(F)(F)CC3)nc(-c3cncc(C(F)(F)F)n3)n2)CC1` [Compound 421], the IC50 in assay [1] (setting [7]) and in assay [4] was 0.1 to 1 µM in each case.
